O=c1cc(-c2ccc(O)cc2)oc2cc(O)cc(O)c12
solubility (mole fraction)
Settings | in acetone | in ethanol | in ethyl acetate | in methanol | in n-butanol | in n-propanol | in water
288.2 K | 0.000338 | 0.000244 | 0.000172 | 0.000118 | 0.000478 | 0.000343 | 7e-07
298.2 K | 0.000367 | 0.000295 | 0.000239 | 0.000148 | 0.000568 | 0.000401 | 1.03e-06
308.2 K | 0.000451 | 0.000346 | 0.000323 | 0.000179 | 0.0007 | 0.000473 | 1.57e-06
318.2 K | 0.00054 | 0.000397 | 0.000442 | 0.000219 | 0.000822 | 0.000564 | 2.11e-06
328.2 K | 0.000654 | 0.000449 | 0.000548 | 0.000254 | 0.000934 | 0.000677 | 2.81e-06
